Drawing on ChEMBL document CHEMBL1150946, “Antipruritic dinaphthofuran-7,12-dione derivatives from the pericarp of Impatiens balsamina” (J Nat Prod, 1998), this text covers Activity for two molecules.

The test system of the assay is Mus musculus. In words: Antipruritic activity in ddY mouse assessed as inhibition of compound 48/80-induced nose scratching behavior at 10 mg/kg, po for 20 mins preincubated 24 hrs before compound 48/80 challenge. It is filed as functional, organism-based. More on the design: dose 10 mg/kg.

Active and inactive are the calls of the source. No cut-off for these calls is given here.

For the molecule `COC1=CC(=O)c2ccccc2C1=O`, the outcome was Active.

For the molecule `COc1c(O[C@@H]2O[C@H](CO)[C@@H](O)[C@H](O)[C@H]2O)c2ccccc2c2oc3c(c12)C(=O)c1ccccc1C3=O`, the result was Active.
